# Experimental data reported in patent US20050124607A1, “5-Substituted quinazolinone compounds useful as alpha 1A/B adrenergic receptor antagonists” (priority 2003, published 2005).
# Legend:
# alpha1A adrenoceptor = biological target: T1, alpha1A adrenoceptor (Homo sapiens, UniProt P35348); assay: [3H]prazosin binding (alpha1-adrenoceptor) assay, alpha 1A; conditions: transfected CHO-K1 cell membranes, read-out: pKi alpha 1A (converted)
# T1 construct: expressed in transfected cells; host or cells: CHO-K1
# T1 sequence (P35348 1-466): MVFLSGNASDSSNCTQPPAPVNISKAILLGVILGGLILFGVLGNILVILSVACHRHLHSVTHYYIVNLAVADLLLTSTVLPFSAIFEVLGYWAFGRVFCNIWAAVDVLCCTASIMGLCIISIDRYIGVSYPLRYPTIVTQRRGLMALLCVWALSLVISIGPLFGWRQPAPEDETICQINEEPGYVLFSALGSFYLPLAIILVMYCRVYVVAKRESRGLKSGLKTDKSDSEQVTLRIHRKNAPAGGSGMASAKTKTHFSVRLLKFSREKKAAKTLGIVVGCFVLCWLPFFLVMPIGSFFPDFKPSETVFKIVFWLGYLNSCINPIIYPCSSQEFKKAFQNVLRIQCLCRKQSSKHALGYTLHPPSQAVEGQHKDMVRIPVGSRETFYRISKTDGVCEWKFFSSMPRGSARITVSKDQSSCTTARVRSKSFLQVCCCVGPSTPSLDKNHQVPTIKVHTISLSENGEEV
# Experimental: (§1) Alpha1 A, alpha1B, and alpha1D adrenoceptor transfected CHO-K1 cells, prepared using the methods described by Chang et al., FEBS Lett. 1998, 422:279-283, were grown to confluence in T-162 tissue culture flasks in Ham's F-12 culture medium supplemented with 10% fetal bovine serum, geneticin (150 μg/mL) and streptomycin/penicillin (30 μg/mL/30 μg/mL) at 37° C. in 7% CO2. Cells were harvested by incubating with phosphate-buffered saline (PBS) containing 30 μM EDTA for 5-10 min at 37° C. Cells were pelleted by centrifuging at 500×g for 5 min, and the pelleted cells were homogenized (Polytron homogenizer) in 10 vols (w/v) of 50 mM Tris, 1 mM EDTA, (homogenisation buffer, pH 7.4 at 4° C.). The homogenate was centrifuged at 45,000×g for 20 min. The pellet was resuspended in the homogenizing buffer and rehomogenized. The resulting homogenate was centrifuged at 45,000×g for 20 min. The pellet was resuspended in 50 mM Tris buffer (pH 7.4 at 4° C.), aliquoted, frozen, and stored at −80° C. for further use.
# (§2) The membranes were thawed at rt and diluted in assay buffer (50 mM Tris buffer at […]) at 37° C. and homogenized using the Polytron tissue disrupter. The membranes were incubated with the radioligand ([^3H]prazosin, NEN, 0.1-0.5 nM) and test compound at 37° C. for 30 min. The membranes were then filtered over polyethyleneimine-treated GF/B unifilter plates using a Packard Filtermate Harvester and washed with ice-cold 50 mM Tris-HCl, 1 mM EDTA buffer (3×3 sec. washes). Scintillation cocktail was added to the filter plates and bound radioligand determined by liquid scintillation spectrophotometry.
# (§3) For each experiment, total binding (in the absence of any test or reference compounds) and non-specific binding (10 μM phentolamine) were determined. For each sample tested, the concentration producing 50% inhibition of binding (IC50) and Hill Slope (nH) was determined using iterative non-linear curve fitting techniques with Kaleidagraph (Synergy Software) or other appropriate software. If the radioligand KD was known, the inhibition dissociation constant (KI) of each ligand was determined according to the method of Cheng and Prusoff (Cheng, Y-C. and Prusoff, W. H., Biochem.Pharmacol., 1973, 22, 3099-3108).
# alpha1B adrenoceptor = biological target: T2, alpha1B adrenoceptor (Homo sapiens, UniProt P35368); assay: [3H]prazosin binding (alpha1-adrenoceptor) assay, alpha 1B; conditions: transfected CHO-K1 cell membranes, read-out: pKi alpha 1B (converted)
# T2 construct: expressed in transfected cells; host or cells: CHO-K1
# T2 sequence (P35368 1-520): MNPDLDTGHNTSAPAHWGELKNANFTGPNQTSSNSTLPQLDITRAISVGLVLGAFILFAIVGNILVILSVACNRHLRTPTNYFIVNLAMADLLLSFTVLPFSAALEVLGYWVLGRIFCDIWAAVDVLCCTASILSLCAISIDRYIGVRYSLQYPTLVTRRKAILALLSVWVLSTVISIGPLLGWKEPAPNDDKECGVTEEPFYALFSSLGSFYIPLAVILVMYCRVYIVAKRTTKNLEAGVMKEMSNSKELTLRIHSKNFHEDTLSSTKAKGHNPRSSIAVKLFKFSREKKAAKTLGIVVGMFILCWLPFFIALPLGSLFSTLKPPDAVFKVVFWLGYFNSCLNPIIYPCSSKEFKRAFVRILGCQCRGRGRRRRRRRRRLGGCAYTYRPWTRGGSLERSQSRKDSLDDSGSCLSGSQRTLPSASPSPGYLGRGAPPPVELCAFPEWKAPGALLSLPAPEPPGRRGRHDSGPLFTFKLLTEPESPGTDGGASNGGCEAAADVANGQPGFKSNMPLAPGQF
# Experimental: as §1, §2, §3
# alpha1D adrenoceptor = biological target: T3, alpha1D adrenoceptor (Homo sapiens, UniProt P25100); assay: [3H]prazosin binding (alpha1-adrenoceptor) assay, alpha 1D; conditions: transfected CHO-K1 cell membranes, read-out: pKi alpha 1D (converted)
# T3 construct: expressed in transfected cells; host or cells: CHO-K1
# T3 sequence (P25100 1-572): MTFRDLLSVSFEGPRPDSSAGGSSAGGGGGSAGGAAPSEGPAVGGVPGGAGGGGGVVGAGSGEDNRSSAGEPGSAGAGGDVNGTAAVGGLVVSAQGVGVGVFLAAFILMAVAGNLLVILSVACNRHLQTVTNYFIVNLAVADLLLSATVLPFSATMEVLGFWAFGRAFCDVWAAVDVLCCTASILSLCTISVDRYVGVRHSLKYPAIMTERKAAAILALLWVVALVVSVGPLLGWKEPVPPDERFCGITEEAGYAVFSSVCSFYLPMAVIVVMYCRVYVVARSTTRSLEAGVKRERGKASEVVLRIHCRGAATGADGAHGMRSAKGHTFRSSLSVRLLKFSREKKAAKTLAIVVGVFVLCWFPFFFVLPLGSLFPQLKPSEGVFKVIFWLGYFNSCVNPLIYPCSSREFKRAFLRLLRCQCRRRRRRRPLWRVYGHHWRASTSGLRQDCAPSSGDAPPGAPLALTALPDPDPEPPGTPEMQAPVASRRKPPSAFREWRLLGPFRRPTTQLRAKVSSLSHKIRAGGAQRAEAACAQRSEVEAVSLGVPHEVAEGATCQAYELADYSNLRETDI
# Experimental: as §1, §2, §3
Ki (alpha1A adrenoceptor),Ki (alpha1B adrenoceptor),Ki (alpha1D adrenoceptor),melting point,Structure (SMILES)
6.17 nM,13.8 nM,257 nM,,COc1cc2[nH]c(N3CCC4(CC3)CN(c3ccc(F)cc3)C(=O)CO4)nc(=O)c2c(OC)c1OC
1.12 nM,2.51 nM,457 nM,,"COc1cc2[nH]c(N3CCN(c4ncc[nH]4)CC3)nc(=O)c2c(OC)c1OC [2-[4-(1H-Imidazol-2-yl)-piperazin-1-yl]-5,6,7-tri-methoxy-1H-quinazolin-4-one]"
5.25 nM,2.19 nM,87.1 nM,,"COc1cc2[nH]c(N3CCC(CCn4ccnc4)CC3)nc(=O)c2c(C)c1OC [2-[4-(2-Imidazol-1-yl-ethyl)-piperidin-1-yl]-6,7-di-methoxy-5-methyl-1H-quinazolin-4-one]"
,,,223.9 to 225.9 °C,"COc1cc2[nH]c(N3CCc4c(cccc4NC(=N)c4ccco4)C3)nc(=O)c2c(OC)c1OC [Example 117, N-[2-(5,6,7-Trimethoxy-4-oxo-1,4-di-hydro-quina-zolin-2-yl)-1,2,3,4-tetra-hydro-isoquinolin-5-yl]-furan-2-car-boxamidine]"
,,,220 to 225 °C,"COc1cc2c(cc1OC)CN(c1nc(=O)c3c(-c4ccc(F)cc4)c(OC)c(OC)cc3[nH]1)CC2 [Example 120, 2-(6,7-Dimethoxy-3,4-di-hydro-1H-isoquino-lin-2-yl)-5-(4-fluoro-phe-nyl)-6,7-dimethoxy-1H-quina-zolin-4-one]"
,,,223.5 to 226.6 °C,"COc1cc2[nH]c(N3CCc4c(cccc4/N=C(\C)N(C)C)C3)nc(=O)c2c(OC)c1OC [Example 122, N,N-Dimethyl-N′-[2-(5,6,7-tri-methoxy-4-oxo-1,4-di-hydro-quinazolin-2-yl)-1,2,3,4-tetra-hydro-iso-quinolin-5-yl]-acetamidine]"
,,,252.1 to 256.1 °C,"COc1cc2[nH]c(N3CCc4c(cccc4NC(=N)C4CCC4)C3)nc(=O)c2c(C)c1OC [Example 123, N-[2-(6,7-Dimethoxy-5-meth-yl-4-oxo-1,4-di-hydro-quinazolin-2-yl)-1,2,3,4-tetra-hydro-isoquinolin-5-yl]-cyclo-butanecarboxamidine]"
,,,279 to 282 °C,"COc1cc2[nH]c(N3CCc4c(cccc4NC(=N)c4ccco4)C3)nc(=O)c2c(C)c1OC [Example 124, N-[2-(6,7-Dimethoxy-5-meth-yl-4-oxo-1,4-di-hydro-quinazolin-2-yl)-1,2,3,4-tetra-hydro-iso-quinolin-5-yl]-furan-2-carboxamidine]"
,,,254.3 to 257.1 °C,"CCCC(=N)Nc1cccc2c1CCN(c1nc(=O)c3c(C)c(OC)c(OC)cc3[nH]1)C2 [Example 125, N-[2-(6,7-Dimethoxy-5-meth-yl-4-oxo-1,4-di-hydro-quinazolin-2-yl)-1,2,3,4-tetra-hydro-isoquinolin-5-yl]-butyramidine]"
,,,176 to 177.1 °C,"COc1cc2[nH]c(N3CCc4ccc(/N=C(\C)N(C)C)cc4C3)nc(=O)c2c(C)c1OC [Example 132, N′-[2-(6,7-Dimethoxy-5-meth-yl-4-oxo-1,4-di-hydro-quinazolin-2-yl)-1,2,3,4-tetra-hydro-isoquinolin-7-yl]-N,N-di-methyl-acetamidine]"
,,,260.8 to 269 °C,"COc1cc2c(cc1OC)CN(c1nc(=O)c3c(F)c(OC)c(OC)cc3[nH]1)CC2 [Example 133, 2-(6,7-Dimethoxy-3,4-di-hydro-1H-isoquino-lin-2-yl)-5-fluoro-6,7-di-methoxy-1H-quina-zolin-4-one]"
,,,255.4 to 259.9 °C,"COc1cc2c(cc1OC)CN(c1nc(=O)c3c(Cl)c(OC)c(OC)cc3[nH]1)CC2 [Example 134, 5-Chloro-2-(6,7-di-methoxy-3,4-dihydro-1H-iso-quinolin-2-yl)-6,7-di-methoxy-1H-quinazolin-4-one]"
,,,> 300 °C,"COc1cc2[nH]c(N3CCc4c(ncnc4N4CCOCC4)C3)nc(=O)c2c(C)c1OC [Example 136, 6,7-Dimethoxy-5-meth-yl-2-(4-morpholin-4-yl-5,8-di-hydro-6H-py-rido[3,4-d]pyrimidin-7-yl)-1H-quina-zolin-4-one]"
,,,205.1 to 209.1 °C,"COc1cc2[nH]c(N3CCCC3c3cccc(N4CCN=C4C)c3)nc(=O)c2c(OC)c1OC (centres unmarked) [Example 138, 5,6,7-Trimethoxy-2-{2-[3-(2-meth-yl-4,5-di-hydro-imidazol-1-yl)-phe-nyl]-pyrrolidin-1-yl}-1H-quina-zolin-4-one]"
,,,188.6 to 191 °C,"COc1cc2[nH]c(N3CCCC3c3cccc(NCCNC(C)=O)c3)nc(=O)c2c(OC)c1OC (centres unmarked) [Example 139, N-(2-{3-[1-(5,6,7-Tri-methoxy-4-oxo-1,4-di-hydro-quinazolin-2-yl)-pyr-rolidin-2-yl]-phenyl-amino}-ethyl)-acetamide]"
,,,152.2 to 154.4 °C,"COc1cc2[nH]c(N3CCC(c4cccc(/N=C(\C)N(C)C)c4)C3)nc(=O)c2c(C)c1OC (centres unmarked) [Example 142, N′-{3-[1-(6,7-Di-methoxy-5-methyl-4-oxo-1,4-di-hydro-quina-zolin-2-yl)-pyr-rolidin-3-yl]-phenyl}-N,N-di-methyl-acetamidine]"
,,,270.9 to 273.5 °C,"COc1cc2[nH]c(N3CCc4c(cccc4/N=C(/C)N(C)C)C3)nc(=O)c2c(C)c1OC [Example F-1, N′-[2-(6,7-Dimethoxy-5-methyl-4-oxo-1,4-dihydro-quinazolin-2-yl)-1,2,3,4-tetrahydro-isoquinolin-5-yl]-N,N-dimethyl-acetamidine]"
1.58 nM,1.58 nM,79.4 nM,,"CNCC(=O)N(C)Cc1cccc2c1CCN(c1nc(=O)c3c(C)c(OC)c(OC)cc3[nH]1)C2 [N-[2-(6,7-Dimethoxy-5-methyl-4-oxo-1,4-dihydro-quinazolin-2-yl)-1,2,3,4-tetrahydro-isoquinolin-5-ylmethyl]-N-methyl-2-methylamino-acetamide]"
